Molecules are shown by their SMILES.

The target of the first test is T1, Lanosterol synthase (Rattus norvegicus, UniProt P48450).
T1 sequence (P48450 whole entry): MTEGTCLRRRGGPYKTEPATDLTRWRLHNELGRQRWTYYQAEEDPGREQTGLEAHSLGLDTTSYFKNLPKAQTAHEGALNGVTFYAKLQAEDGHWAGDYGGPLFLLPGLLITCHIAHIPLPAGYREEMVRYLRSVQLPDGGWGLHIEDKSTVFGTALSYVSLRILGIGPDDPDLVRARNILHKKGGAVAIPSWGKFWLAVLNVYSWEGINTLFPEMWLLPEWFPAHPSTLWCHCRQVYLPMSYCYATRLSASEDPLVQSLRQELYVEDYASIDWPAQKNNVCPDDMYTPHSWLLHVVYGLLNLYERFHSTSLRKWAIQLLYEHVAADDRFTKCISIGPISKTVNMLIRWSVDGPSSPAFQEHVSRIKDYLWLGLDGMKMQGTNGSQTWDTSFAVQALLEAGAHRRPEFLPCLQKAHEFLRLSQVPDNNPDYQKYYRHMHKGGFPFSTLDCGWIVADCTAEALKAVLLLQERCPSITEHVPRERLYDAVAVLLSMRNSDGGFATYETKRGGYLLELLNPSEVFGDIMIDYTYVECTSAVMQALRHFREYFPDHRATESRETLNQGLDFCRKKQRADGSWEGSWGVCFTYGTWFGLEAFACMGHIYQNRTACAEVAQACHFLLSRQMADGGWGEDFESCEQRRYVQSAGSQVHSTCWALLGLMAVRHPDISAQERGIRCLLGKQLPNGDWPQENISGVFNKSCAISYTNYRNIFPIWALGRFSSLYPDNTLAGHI
In words: Inhibitory activity against Oxidosqualene-lanosterol cyclase enzyme obtained from rat liver; d = in a microsomal assay fails to inhibit OSC (Oxidosqualene cyclase). Format: microsomes, Microsome.
Conditions: not given
With `C[C@@H]1[C@@H](O)CC[C@]2(C)CNCC[C@@H]12`, the IC50 result was “No inhibition”.

Another test relates to HepG2. Kind of test: Compound was tested for inhibition of cholesterol biosynthesis in HepG2 cells from [14C]- acetate. Format: functional, cell-based. The conditions noted are these: Homo sapiens.
Compound `CCCCCCCCCCCC[S+]([O-])N1CC[C@H]2[C@H](C)[C@@H](O)CC[C@]2(C)C1` (stereo not given in full) showed an IC50 of 2800 nM.
For the compound `CCCCCCCCCCCCS(=O)(=O)N1CC[C@H]2[C@H](C)[C@@H](O)CC[C@]2(C)C1`, the IC50 is 52000 nM.
`CCCCCCCCCCCC(=S)N1CC[C@H]2[C@H](C)[C@@H](O)CC[C@]2(C)C1` yielded an IC50 of 2000 nM.
The same measure, in the same setting: next, `CCCCCCCCCCCC(=O)N1CC[C@H]2[C@H](C)[C@@H](O)CC[C@]2(C)C1`: 700 nM.
In turn, `CC(C)CCCC(C)CCCC(C)N1CC[C@H]2[C@H](C)[C@@H](O)CC[C@]2(C)C1` (stereo not given in full) registered an IC50 of 70 nM.
Take `CCCCCCCCCCCCN1CC[C@H]2[C@H](C)[C@@H](O)CC[C@]2(C)C1`: it took 10 nM to reach half-maximal inhibition (IC50).
The same measure, in the same setting: as for `CC1(C)[C@@H](O)CC[C@]2(C)CCCC[C@@H]12`, the figure is 28000 nM; as for `CC(=O)N1CC[C@H]2[C@H](C)[C@@H](O)CC[C@]2(C)C1`, > 100000 nM.
Take `C[C@@H]1[C@@H](O)CC[C@]2(C)CNCC[C@@H]12`: half-maximal inhibition (IC50) was put at 19000 nM.

As usually defined, the IC50 is the concentration that inhibits the measured activity by half.

For the origin of these results see ChEMBL document CHEMBL1126135, “N-(1-oxododecyl)-4 alpha,10-dimethyl-8-aza-trans-decal-3 beta-ol: a potent competitive inhibitor of 2,3-oxidosqualene cyclase” (J Med Chem, 1992).
